Data: ChEMBL document CHEMBL1201862, “PubChem BioAssay data set” (2004)
Activity calls are given as the source filed them.

Tests used:
[1] = molecular target: T1, Ubiquitin-conjugating enzyme E2 N (Homo sapiens, UniProt P61088); type: functional;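 further: Dose-response confirmation in a TR-FRET assay detecting UBC13-driven polyubiquitin chain formation, inhibition measured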
T1 sequence (P61088 whole entry): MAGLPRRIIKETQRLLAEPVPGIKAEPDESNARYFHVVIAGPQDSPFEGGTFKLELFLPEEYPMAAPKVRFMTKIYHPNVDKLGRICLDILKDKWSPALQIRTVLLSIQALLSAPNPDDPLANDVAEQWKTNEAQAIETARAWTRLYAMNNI

Cytochrome P450 3A4 = Cytochrome P450 3A4 (Homo sapiens, UniProt P08684);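 further: CYP3A4 tested as one member of a cytochrome P450 panel screen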
Chain of Cytochrome P450 3A4 (P08684 whole entry): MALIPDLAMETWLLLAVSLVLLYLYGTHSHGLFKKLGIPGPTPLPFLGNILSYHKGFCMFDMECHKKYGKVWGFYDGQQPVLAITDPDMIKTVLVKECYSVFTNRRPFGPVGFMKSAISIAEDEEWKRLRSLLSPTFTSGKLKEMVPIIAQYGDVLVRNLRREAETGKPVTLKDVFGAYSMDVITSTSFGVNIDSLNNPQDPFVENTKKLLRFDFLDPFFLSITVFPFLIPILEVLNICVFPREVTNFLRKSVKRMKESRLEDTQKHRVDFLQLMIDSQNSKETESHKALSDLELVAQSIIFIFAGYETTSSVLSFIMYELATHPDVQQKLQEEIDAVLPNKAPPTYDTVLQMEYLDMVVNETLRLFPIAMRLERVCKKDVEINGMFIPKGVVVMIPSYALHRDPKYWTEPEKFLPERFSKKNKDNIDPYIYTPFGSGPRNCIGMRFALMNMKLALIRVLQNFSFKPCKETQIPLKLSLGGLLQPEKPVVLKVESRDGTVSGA

Cytochrome P450 2D6 = Cytochrome P450 2D6 (Homo sapiens, UniProt P10635);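 further: CYP2D6 member of a cytochrome P450 panel assay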
Chain of Cytochrome P450 2D6 (P10635 whole entry): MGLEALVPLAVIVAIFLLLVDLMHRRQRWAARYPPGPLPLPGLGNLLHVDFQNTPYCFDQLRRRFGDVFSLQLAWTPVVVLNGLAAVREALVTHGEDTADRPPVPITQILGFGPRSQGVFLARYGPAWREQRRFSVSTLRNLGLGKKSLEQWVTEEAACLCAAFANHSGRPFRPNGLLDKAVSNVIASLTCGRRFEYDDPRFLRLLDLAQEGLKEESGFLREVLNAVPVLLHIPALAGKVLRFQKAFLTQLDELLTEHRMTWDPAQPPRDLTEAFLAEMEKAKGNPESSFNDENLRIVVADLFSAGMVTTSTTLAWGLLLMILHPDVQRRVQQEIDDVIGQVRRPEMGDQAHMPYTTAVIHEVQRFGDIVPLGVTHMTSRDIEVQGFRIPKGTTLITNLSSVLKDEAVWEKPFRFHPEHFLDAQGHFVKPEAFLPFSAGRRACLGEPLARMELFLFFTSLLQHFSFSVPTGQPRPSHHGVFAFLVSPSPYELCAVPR

Cytochrome P450 1A2 = molecular target: T2, Cytochrome P450 1A2 (Homo sapiens, UniProt P05177);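 further: PubChem cytochrome P450 panel assay, CYP1A2 panel member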
T2 sequence (P05177 whole entry): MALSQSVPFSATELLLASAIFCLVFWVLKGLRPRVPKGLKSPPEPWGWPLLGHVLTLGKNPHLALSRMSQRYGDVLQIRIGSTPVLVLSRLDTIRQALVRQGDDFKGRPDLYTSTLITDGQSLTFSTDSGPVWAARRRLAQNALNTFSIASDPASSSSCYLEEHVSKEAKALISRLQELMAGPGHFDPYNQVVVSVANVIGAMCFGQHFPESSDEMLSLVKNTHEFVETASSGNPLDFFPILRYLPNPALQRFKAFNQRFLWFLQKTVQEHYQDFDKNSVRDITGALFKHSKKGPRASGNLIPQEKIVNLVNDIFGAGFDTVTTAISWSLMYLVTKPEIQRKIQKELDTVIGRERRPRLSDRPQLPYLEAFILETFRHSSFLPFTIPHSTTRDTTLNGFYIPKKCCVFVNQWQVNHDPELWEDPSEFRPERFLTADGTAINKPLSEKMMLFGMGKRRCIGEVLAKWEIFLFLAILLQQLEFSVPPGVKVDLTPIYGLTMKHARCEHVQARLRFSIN

[2] = Luminescence Cell-Based Dose Retest to Confirm Inhibitors of Cancer Stem Cells. [Related pubchem assays (depositor defined):AID2717, AID2721]; type: functional; details: Homo sapiens
Cytochrome P450 2C9 = Cytochrome P450 2C9 (Homo sapiens, UniProt P11712)
Chain of Cytochrome P450 2C9 (P11712 whole entry): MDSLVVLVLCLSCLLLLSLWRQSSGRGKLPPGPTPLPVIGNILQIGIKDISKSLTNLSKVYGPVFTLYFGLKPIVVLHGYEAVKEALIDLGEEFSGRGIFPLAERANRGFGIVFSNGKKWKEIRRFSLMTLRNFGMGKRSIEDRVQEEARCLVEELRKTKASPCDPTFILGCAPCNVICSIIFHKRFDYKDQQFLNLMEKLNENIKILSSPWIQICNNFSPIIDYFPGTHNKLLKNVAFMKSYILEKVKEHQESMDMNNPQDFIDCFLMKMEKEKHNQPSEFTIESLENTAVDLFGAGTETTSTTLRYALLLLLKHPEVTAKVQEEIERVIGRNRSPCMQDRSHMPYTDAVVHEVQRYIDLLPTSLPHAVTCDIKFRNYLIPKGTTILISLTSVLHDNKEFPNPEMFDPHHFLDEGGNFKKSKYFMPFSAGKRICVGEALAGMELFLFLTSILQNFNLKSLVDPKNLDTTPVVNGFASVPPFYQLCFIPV

Cytochrome P450 2C19 = Cytochrome P450 2C19 (Homo sapiens, UniProt P33261); experiment: Cytochrome panel assay with activity outcomes. Panel member name: p450-cyp2c19 Compounds with AC50 equal or less than 10 uM are considered active; type: functional
Chain of Cytochrome P450 2C19 (P33261 whole entry): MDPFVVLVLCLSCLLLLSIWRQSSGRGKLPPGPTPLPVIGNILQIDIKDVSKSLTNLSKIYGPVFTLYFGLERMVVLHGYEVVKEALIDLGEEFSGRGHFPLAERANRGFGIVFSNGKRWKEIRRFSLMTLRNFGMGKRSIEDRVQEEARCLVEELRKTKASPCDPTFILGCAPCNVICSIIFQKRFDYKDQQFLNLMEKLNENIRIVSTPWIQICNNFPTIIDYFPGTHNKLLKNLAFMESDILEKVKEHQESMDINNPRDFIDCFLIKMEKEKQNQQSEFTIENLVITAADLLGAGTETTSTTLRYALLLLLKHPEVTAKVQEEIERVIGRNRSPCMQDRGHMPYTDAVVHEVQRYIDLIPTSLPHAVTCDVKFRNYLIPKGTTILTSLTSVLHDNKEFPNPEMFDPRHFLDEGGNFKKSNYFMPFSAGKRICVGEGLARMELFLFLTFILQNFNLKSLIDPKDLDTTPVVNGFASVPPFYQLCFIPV

[3] = inhibitors of SNCA 5'UTR-driven reporter translation, confirmation, H4 neuroglioma cells, luminescence (AID 1988); type: functional, cell-based
[4] = Luminescence Cell-Based Dose Response HTS to Identify Inhibitors of 5'UTR Stem-Loop Driven Prion Protein mRNA Translation in H4 Neuroglioblastoma Cells. [Related pubchem assays: 1827 (Project Summary), 1813 (Primary HTS)]; type: functional
[5] = inhibitors of firefly luciferase expression or activity, dose response, H4 neuroglioma cells, luminescence (AID 1990); type: functional, cell-based
[6] = tested on: Streptococcus sp. 'group A'; experiment: growth inhibition of control SK(-) GAS strain, dose response, counter-screen for streptokinase expression inhibitor project, luminescence, kanamycin, BacTiterGlo, confirmation (AID 1900); type: functional, organism-based
Streptococcus = experiment: Group A Streptococcus viability loss, dose response, counter-screen for streptokinase expression inhibitor project, luminescence, BacTiterGlo (AID 1915); type: functional, organism-based;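 further: potency for reduction of bacterial viability or growth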
Streptokinase A = molecular target: T3, Streptokinase A (Streptococcus pyogenes serotype M1, UniProt P10520); experiment: S. pyogenes streptokinase expression inhibitors, potency, dose response, plasminogen activation absorbance, OD405 (AID 1914); type: functional, Streptococcus pyogenes M1 GAS;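 further: secreted streptokinase activity via plasminogen activation per viability signal from cell pellet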
T3 sequence (P10520 whole entry): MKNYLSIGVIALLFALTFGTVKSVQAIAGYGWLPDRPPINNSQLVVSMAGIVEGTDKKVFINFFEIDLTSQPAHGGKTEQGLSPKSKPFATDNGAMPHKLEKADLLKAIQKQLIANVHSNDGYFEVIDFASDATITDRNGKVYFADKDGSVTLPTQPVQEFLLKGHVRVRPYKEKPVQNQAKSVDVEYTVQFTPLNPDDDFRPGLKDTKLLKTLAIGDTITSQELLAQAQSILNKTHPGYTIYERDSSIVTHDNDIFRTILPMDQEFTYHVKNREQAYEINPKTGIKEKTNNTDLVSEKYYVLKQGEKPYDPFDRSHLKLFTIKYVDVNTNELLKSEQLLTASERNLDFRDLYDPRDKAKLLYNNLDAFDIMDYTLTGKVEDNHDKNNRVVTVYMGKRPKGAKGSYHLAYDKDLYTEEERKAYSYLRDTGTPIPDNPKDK

[7] = inhibitors of intracellular T. cruzi replication, confirmation, NIH3T3 host cells, beta-gal luminescence (AID 2044); type: functional, cell-based;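 further: intracellular parasites grown in NIH/3T3 mouse fibroblasts as host cells; luminescent beta-galactosidase reporter signal from transgenic T. cruzi replicating inside host cells; inhibitors lower the luminescence signal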
[8] = cytotoxicity toward NIH3T3 fibroblasts, dose response, counter-screen, cell-based, ATP luminescence, mouse fibroblasts (AID 2010); type: functional;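 further: cells exposed to compound for about 90 hours before reading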
[9] = NIH-3T3 fibroblast cytotoxicity, dose response, cytotoxicity control, cell-based, fluorescence, Alamar Blue, secondary assay (AID 2327); type: functional;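 further: NIH-3T3 mouse fibroblasts cultured with fluconazole at 8 µg/mL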

CCCCc1ccc(/C=C(\C#N)C(N)=S)s1
IC50 [1]: > 20 µM (inactive)

c1cc(CNCCN2CCNCC2)ccn1
AC50 (Cytochrome P450 3A4): 5.01 µM (inconclusive)
AC50 (Cytochrome P450 2D6): 3.98 µM (inconclusive)

Cc1nc(N)sc1C(=O)NN
IC50 [1]: > 20 µM (inactive)

COc1cccc(C(=O)Nc2ccc(NC(=O)c3ccco3)cn2)c1
AC50 (Cytochrome P450 1A2): 25.1 µM (inconclusive)
AC50 (Cytochrome P450 2D6): 20 µM (inconclusive)

COc1ccc(-c2cc(C(=O)N3CC4(C)CC3CC(C)(C)C4)no2)cc1OC (configuration not stated)
AC50 [2]: 1.75 µM (active)

Cc1cccc(C(=O)Nc2ccc(C(=O)Nc3ccc(O)cc3)cc2)c1
AC50 [2]: 2.09 µM (active)

Cc1cccc(CNc2ncnc3ccc(-c4cccc(C#N)c4)cc23)c1
AC50 (Cytochrome P450 2C9): 0.794 µM (inconclusive)

O=C(O)[C@H]1CCCC[C@@H]1c1c2ccc(=O)c(O)c-2oc2c(O)c(O)ccc12
AC50 (Cytochrome P450 2C19; read-out: AC50): 2.51 µM (inconclusive)
AC50 (Cytochrome P450 2C9): 6.31 µM (inconclusive)

Cc1nc(SCC(=O)Nc2ccc(N3CCOCC3)cc2)nc(C)c1C
AC50 (Cytochrome P450 2C9): 12.6 µM (inconclusive)

O=S(=O)(NCCNC/C=C\c1ccc(Br)cc1)c1cccc2cnccc12
AC50 (Cytochrome P450 2C19; read-out: AC50): 15.8 µM (inconclusive)
AC50 (Cytochrome P450 2D6): 25.1 µM (inconclusive)

CCCN1C(=O)C(Cc2nc3ccccc3c(=O)n2C)c2ccccc21 (configuration not stated)
AC50 (Cytochrome P450 2C19; read-out: AC50): 0.0562 µM (inconclusive)
AC50 (Cytochrome P450 1A2): 25.1 µM (inconclusive)
AC50 (Cytochrome P450 2D6): 17.8 µM (inconclusive)

CCOC(=O)C1CCCN(C(=O)CCNC(=O)Cn2ccc3ccccc3c2=O)C1 (configuration not stated)
EC50 [3]: > 120 µM (not active)
EC50 [4]: 104 µM (active)
EC50 [5]: > 120 µM (not active)

COc1ccc(/C=N/OCC(=O)N2CC3(C)CC2CC(C)(C)C3)cc1 (configuration not stated)
AC50 [2]: 11.5 µM (active)

CC(=O)c1ccc(NC(=O)C2CC(c3ccc(F)cc3)=NO2)cc1 (configuration not stated)
AC50 (Cytochrome P450 2C19; read-out: AC50): 17.8 µM (inconclusive)
AC50 (Cytochrome P450 2C9): 1.12 µM (inconclusive)
AC50 (Cytochrome P450 1A2): 0.00794 µM (inconclusive)

COc1ccc2[nH]cc(CCNc3nc(-c4ccoc4)nc4ccccc34)c2c1
AC50 (Cytochrome P450 2C9): 1 µM (inconclusive)

Fc1ccc(CSc2ncnc3sc4c(c23)CCCC4)cc1
AC50 (Cytochrome P450 3A4): 35.5 µM (inconclusive)
EC50 [6]: 22.8 µM (active)
EC50 (Streptococcus): > 150 µM (not active)
EC50 (Streptokinase A): 13.3 µM (active)

CCCCCCCCN[C@@H](C)[C@H](O)c1ccc(SC(C)C)cc1 [SULOCTIDIL]
AC50 (Cytochrome P450 2C19; read-out: AC50): 10 µM (inconclusive)
AC50 (Cytochrome P450 2C9): 0.00501 µM (inconclusive)

O=C(Nc1ccc(Cl)c(S(=O)(=O)N2CCOCC2)c1)c1ccccc1-c1ccc(C(F)(F)F)cc1
EC50 [3]: > 120 µM (not active)
EC50 [4]: > 120 µM (not active)
EC50 [5]: 14.5 µM (active)

COc1ccc(-c2oc(=O)c3cc(OC)c(OC)cc3c2C#CC2(O)CCCCC2)cc1
IC50 [1]: > 20 µM (inactive)

O=C(O)c1ccccc1Nc1cccc(C(F)(F)F)c1 [FLUFENAMIC ACID]
AC50 (Cytochrome P450 2C9): 10 µM (inconclusive)

N#CCC(=O)N/N=C/c1cn(Cc2cccc3ccccc23)c2ccccc12
EC50 [3]: 8.59 µM (active)
EC50 [4]: > 120 µM (not active)
EC50 [5]: 14.9 µM (active)

Cc1nc2cnc(Oc3ccccc3)nc2n(C2CC2)c1=O
AC50 (Cytochrome P450 3A4): 25.1 µM (inconclusive)
AC50 (Cytochrome P450 2C9): 12.6 µM (inconclusive)

CC(C)(C)n1nc(-c2ccc(F)cc2)c2c(N)ncnc21
EC50 [3]: 20 µM (active)
EC50 [5]: 8.68 µM (active)
EC50 [7]: 0.316 µM (active)
EC50 [8]: 7.86 µM (active)

Cc1cccc(NC(S)=NNC(=O)CC(C)O)c1C (configuration not stated)
AC50 (Cytochrome P450 2C9): 0.00708 µM (inconclusive)

Cc1cc(C)cc(NC(=O)CC(=N)NO)c1
AC50 (Cytochrome P450 3A4): 28.2 µM (inconclusive)

CN(C)c1ncc2nc(-c3cccs3)c(=O)n(C)c2n1
AC50 (Cytochrome P450 3A4): 31.6 µM (inconclusive)

CCOc1ccc(N/N=C(/C#N)C(N)=O)cc1
AC50 (Cytochrome P450 3A4): 20 µM (inconclusive)
AC50 (Cytochrome P450 2C9): 15.8 µM (inconclusive)

CCCCCCc1nnc(N)s1
EC50 [3]: > 120 µM (not active)
EC50 [4]: > 120 µM (not active)
EC50 [5]: > 120 µM (not active)

c1cncc(-c2cc(-c3cc(-c4cccnc4)[nH]n3)n[nH]2)c1
AC50 (Cytochrome P450 3A4): 5.01 µM (inconclusive)
AC50 (Cytochrome P450 1A2): 0.501 µM (inconclusive)

Cc1ccc(SCc2ccc(C(=O)NCc3ccncc3)cc2)cc1
AC50 (Cytochrome P450 3A4): 7.08 µM (inconclusive)

c1ccc2c(c1)CCCc1cc(NCCN3CCOCC3)nnc1-2
AC50 (Cytochrome P450 3A4): 6.31 µM (inconclusive)

CS(=O)(=O)N1CCC2(CC1)CN(Cc1ccncc1)C2
AC50 (Cytochrome P450 3A4): 31.6 µM (inconclusive)
AC50 (Cytochrome P450 2D6): 20 µM (inconclusive)

CC(C)Oc1ccc(N2CC(C(=O)OCC(=O)NCc3ccccc3)CC2=O)cc1 (configuration not stated)
AC50 (Cytochrome P450 2C9): 28.2 µM (inconclusive)
AC50 (Cytochrome P450 2D6): 22.4 µM (inconclusive)

NS(=O)(=O)c1ccc(/N=N\c2cccnc2O)cc1
AC50 (Cytochrome P450 2C19; read-out: AC50): 3.98 µM (inconclusive)
AC50 (Cytochrome P450 2C9): 3.16 µM (inconclusive)
AC50 (Cytochrome P450 1A2): 0.501 µM (inconclusive)

CCCn1c(SCC#N)nc2c(c1=O)C1(CCCC1)Cc1ccccc1-2
AC50 [2]: 1.92 µM (active)

CCOC(=O)C1=C(C)NC(=O)N[C@@H]1c1coc2cc(C)cc(C)c2c1=O
AC50 (Cytochrome P450 3A4): 3.98 µM (inconclusive)
AC50 (Cytochrome P450 1A2): 2.51 µM (inconclusive)

O=c1cnc2cnc(Oc3ccccc3)nc2n1Cc1cccs1
AC50 (Cytochrome P450 3A4): 15.8 µM (inconclusive)
AC50 (Cytochrome P450 2D6): 39.8 µM (inconclusive)

CCCn1c(=O)c(C(=O)NNS(=O)(=O)c2ccc(Cl)cc2)c(O)c2ccccc21
AC50 [2]: 1.57 µM (active)

CCNc1nc(Oc2ccc(C#N)cc2)cc(C(F)(F)F)n1
EC50 [3]: 11.7 µM (active)
EC50 [4]: 16.8 µM (active)
EC50 [5]: 5.99 µM (active)

CN(C)c1ccc(/C=C(\Cl)c2nc3ccccc3s2)cc1
AC50 [2]: 1.58 µM (active)

Cc1cccc(OCCCC(=O)Nc2ccccc2C(F)(F)F)c1
AC50 (Cytochrome P450 2D6): 25.1 µM (inconclusive)

Cc1noc(NS(=O)(=O)c2ccc(NC(=O)CC34CC5CC(CC(Br)(C5)C3)C4)cc2)c1C
AC50 (Cytochrome P450 2C19): inconclusive
AC50 (Cytochrome P450 2C9): 22.4 µM (inconclusive)

O=[N+]([O-])c1ccc(Cl)c(/C=N/n2c(S)nnc2C2CCCCC2)c1
AC50 [2]: 36.1 µM (active)

O=C(c1cccc(F)c1)N1CCC2(CCCN(c3ccncc3)C2)CC1
AC50 (Cytochrome P450 1A2): 31.6 µM (inconclusive)
AC50 (Cytochrome P450 2D6): 15.8 µM (inconclusive)

COc1ccc(Cc2nnc(Nc3ccc(C)cc3)o2)cc1OC
EC50 [3]: 11.5 µM (active)
EC50 [4]: > 120 µM (not active)
EC50 [5]: > 120 µM (not active)

COc1ccccc1CNc1ncnc2ccc(-c3cccc(C#N)c3)cc12
AC50 (Cytochrome P450 2D6): 2.51 µM (inconclusive)

Cc1cc(O)c(/C=N/Nc2ccc(F)cc2)c(=O)o1
EC50 [9]: 9.97 µM (active)

Cc1cc(NC(=O)Nc2ccc(F)cc2)no1
AC50 (Cytochrome P450 2C9): 15.8 µM (inconclusive)

Cn1cc(-c2nc3cnc(N4CCNCC4)nc3n(C3CC3)c2=O)c2ccccc21
AC50 (Cytochrome P450 3A4): 7.94 µM (inconclusive)
